Tested on: T1, PpUGT73CR1
T1 construct: gene UGT73CR1; tag removal not mentioned
Experiment: HPLC quantification of product
Format: biochemical, Paris polyphylla var. yunnanensis
Settings: 5 mM UDP-glucose, 50 mM Tris-HCl pH 8.0, 37 °C, 30 min, 20-400 µM acceptor
Description: HPLC quantification of product on PpUGT73CR1

SMILES	Km (product floribundasaponin A)	Km (product trillin)
C[C@@H]1CC[C@@]2(OC1)O[C@H]1C[C@H]3[C@@H]4CC=C5C[C@@H](O)CC[C@]5(C)[C@H]4CC[C@]3(C)[C@@]1(O)[C@@H]2C [pennogenin]	73.4 ± 8.16 µM	–
C[C@@H]1CC[C@@]2(OC1)O[C@H]1C[C@H]3[C@@H]4CC=C5C[C@@H](O)CC[C@]5(C)[C@H]4CC[C@]3(C)[C@H]1[C@@H]2C [diosgenin]	–	53.7 ± 9.37 µM

Reference: article PMC8758714, “Effective prediction of biosynthetic pathway genes involved in bioactive polyphyllins in Paris polyphylla” (Communications Biology, 2022)
